Measurements published in article PMC4997316, “A ruthenium polypyridyl intercalator stalls DNA replication forks, radiosensitizes human cancer cells and is enhanced by Chk1 inhibition” (Scientific Reports, 2016).

Tests used:
HeLa cells [1] = experiment: Trypan Blue exclusion assay; assay type: cell-based, human; conditions: 40 μM
Description: HeLa cells were seeded in 6 well plates at 100,000 cells/well and allowed to proliferate for 24 h. Cell cultures were treated as stated, media containing detached/dead cells were removed and retained, adherent cells washed with PBS and detached with Trypsin. Adherent and detached cells for each sample were combined, concentrated via centrifugation and re-suspended in 0.5 ml PBS containing 0.04% Trypan Blue solution. Trypan Blue-negative and Trypan Blue-positive cells were counted by haemocytometer. A minimum of 200 cells were counted for each sample.

[2] = system: HeLa cervical cancer cells; experiment: cell viability with or without Chk1 inhibitor CHIR-124, HeLa; assay type: cell-based, human; conditions: plus CHIR-124 500 nM, 48 h constant exposure
Description: (§1) With this in mind, and considering the strong Chk1 activation in response to 1, HeLa cervical cancer cells, which are […][44], were exposed to a combination of 1 plus the Chk1 inhibitor CHIR-124[45] and the impact of co-treatment upon cell viability determined. A non-cytotoxic dose of 500 nM CHIR-124 was used and results were compared to single-agent treatment. […] Minimal enhancement of the anti-proliferative effect of 2 by CHIR-124 was observed (Fig. S15b), in agreement with 2 operating via a Chk1-independent mechanism.
(§2) Figure 5 Concurrent treatment of [Ru(dppz)2(PIP)]^2+ plus the Chk1 inhibitor CHIR-124 potentiates synergistic apoptosis in cancer cells. (a) Viability of HeLa (cervical cancer) or hSAEC1-KT (normal epithelial) cells after incubation with 1 in the absence or presence of Chk1 inhibitor CHIR-124 (500 nM) for 48 h constant exposure. […] (c) Quantification of apoptotic cells for experimental conditions as shown in (b). […] (f) Quantification of γH2AX foci from cells treated as in (e). […] Minimum of 150 cells counted per experiment. […]
(§3) Cells were seeded in 96 well plates at 20,000 cells/well, allowed to proliferate for 24 h before treatment as described in the main text. […] The absorbance at 540 nm was quantified by plate reader (reference wavelength 650 nm). The metabolic activity of the cell population was determined as a percentage of a negative (solvent) control.

HeLa cells [3] = experiment: quantification of apoptotic morphology (pyknosis/karyorrhexis); assay type: cell-based, human; conditions: single-agent treatment, 48 h (1 40 μM; CHIR-124 500 nM)
Description: as §1
Figure 5 Concurrent treatment of [Ru(dppz)2(PIP)]^2+ plus the Chk1 inhibitor CHIR-124 potentiates synergistic apoptosis in cancer cells. (a) Viability of HeLa (cervical cancer) or hSAEC1-KT (normal epithelial) cells after incubation with 1 in the absence or presence of Chk1 inhibitor CHIR-124 (500 nM) for 48 h constant exposure. (b) Morphological evidence for apoptosis (pyknosis/karyorrhexis, arrows) in HeLa cells treated with 40 μM 1 plus CHIR-124 for 48 h. Scale bars = 20 μm. (c) Quantification of apoptotic cells for experimental conditions as shown in (b). Equivalent results for 2 (40 μM, 48 h) included. Data mean of two independent experiments +/− SD. […] (f) Quantification of γH2AX foci from cells treated as in (e). […] Minimum of 150 cells counted per experiment. […]

[4] = system: hSAEC1-KT human epithelial cells; experiment: cell viability with or without Chk1 inhibitor CHIR-124, hSAEC1-KT; assay type: cell-based; conditions: normal hSAEC1-KT cells, plus CHIR-124 500 nM, 48 h, any concentration of 1
Description: as §1, §2, §3

HeLa cells [5] = experiment: cell-cycle analysis by PI flow cytometry; assay type: cell-based, human; conditions: 40 μM, 24 h
Description: Figure 4 [Ru(dppz)2(PIP)]^2+ induces Chk1 checkpoint kinase activation and G1-S cell-cycle arrest. […] See SI for densitometry. (c) Cell-cycle distributions of HeLa cells incubated with DMSO (0.2%), 1 or 2 at the stated concentrations and time. DNA content was quantified using propidium iodide (PI) and analysed by flow cytometry. […] Data mean of three independent experiments +/− SD. […] They are copied as bare numbers, left to right. / The gate numbers in panel c are very small, so 3, 5, 6, 8 and 9 cannot be told apart with certainty. All the values below are best readings. / DMSO: 0.86, 57.4, 22.5, 16.8 uncertain / 1 (40 μM, 3 h): 0.46, 72.7, 13.5, 8.77 uncertain / 1 (40 μM, 8 h): 1.69, 73.2, 15.3, 3.6 uncertain / 1 (40 μM, 24 h): 1.2, 72.9, 15.8, 6.47 uncertain. […] 32.4 is partly overlapped by the peak line.
Cells were washed with PBS and detached using Trypsin. After centrifugation at 1000 rpm for 5 min, cells were fixed in cold 70% ethanol for 30 mins, centrifuged and re-suspended in PBS. Samples were stained using 10 μg/ml propidium iodide (PI) and 200 μg/ml RNAase A for 30 mins before FACS analysis using a Biosciences LSRII Flow Cytometer. A minimum of 10,000 cells were counted for each sample and data were processed using FloJo software. […]

Row | SMILES | HeLa cell growth (viable cell numbers) (HeLa cells [1]; 24–72 h treatment) | cytotoxicity (HeLa cells [1]; HeLa, up to 72 h, % total cells, read-out: non-viable (Trypan Blue positive) populations) [%] | cell viability on simultaneous treatment with CHIR-124 compared to either agent alone [2] | morphological evidence of apoptosis (pyknosis/karyorrhexis) (HeLa cells [3]) [%] | impact on cell health on combination with CHIR-124 [4] | change in cell-cycle distribution compared to controls (HeLa cells [5])
1 | [Ru+2].c1ccc(-c2nc3c4cccnc4c4ncccc4c3[nH]2)cc1.c1ccc2nc3c4cccnc4c4ncccc4c3nc2c1.c1ccc2nc3c4cccnc4c4ncccc4c3nc2c1 [Complex 1, [Ru(dppz)2(PIP)]^2+] | completely halts HeLa cell growth | < 20 | significant decrease in cell viability | < 5 | no substantial impact on cell health | –
2 | Oc1ccc(-c2nc3c4cccnc4c4ncccc4c3[nH]2)cc1.[Ru+2].c1ccc2nc3c4cccnc4c4ncccc4c3nc2c1.c1ccc2nc3c4cccnc4c4ncccc4c3nc2c1 [Complex 2, [Ru(dppz)2(p-HPIP)]^2+] | – | – | – | – | – | no change in cell-cycle distribution
